Read-outs that look alike come from different tables or passages of the source.
Tests used:
human CB2R (SNAP-CB2) [1] = molecular target: T1, human CB2R (SNAP-CB2) (Homo sapiens, UniProt P34972); type: binding
T1 construct: truncated CB1R (CB1R91-472) and full-length CB2R (CB2R1–360); 5HT3A signal peptide (N, cleaved yes); expressed in transfected cells; membranes

human CB2R (SNAP-CB2) [2] = molecular target: T1, human CB2R (SNAP-CB2); type: binding; settings: 37°C, D77 900 nM, 15-min incubation
[3] = molecular target: T2, human CB1R (SNAP-CB1R91–472) (Homo sapiens, UniProt P21554); assay: biochemical; type: binding
T2 construct: SNAP-tagged human CB1R or CB2R (SNAP-CB1R91–472 and SNAP-CB2); 5HT3A signal peptide (N, cleaved yes); expressed in transfected cells; membranes
T2 sequence (P21554 91-472): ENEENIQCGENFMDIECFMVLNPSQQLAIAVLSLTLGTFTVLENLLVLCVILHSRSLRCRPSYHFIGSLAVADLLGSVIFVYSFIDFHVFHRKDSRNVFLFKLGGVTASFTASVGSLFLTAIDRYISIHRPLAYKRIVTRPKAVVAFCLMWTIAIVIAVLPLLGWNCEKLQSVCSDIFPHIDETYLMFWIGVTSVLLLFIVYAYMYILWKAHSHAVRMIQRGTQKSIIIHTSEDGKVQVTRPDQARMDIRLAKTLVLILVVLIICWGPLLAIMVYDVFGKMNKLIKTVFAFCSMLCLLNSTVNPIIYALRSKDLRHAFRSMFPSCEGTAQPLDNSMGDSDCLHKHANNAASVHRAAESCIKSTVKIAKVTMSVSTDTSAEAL

truncated CB1R91-472 = molecular target: T3, truncated CB1R91-472 (Homo sapiens, UniProt P21554); type: cell-based
T3 construct: 5HT3A signal peptide (N, cleaved yes); expressed in transfected cells; host or cells: T-REx-293 cells, tetracycline-induced, co-expressing the Gi-CASE biosensor
T3 sequence (P21554 91-472): as above

full length CB1R WT = molecular target: T4, full length CB1R WT (Homo sapiens, UniProt P21554); type: cell-based
T4 construct: 5HT3A signal peptide (N, cleaved yes); expressed in transfected cells; host or cells: T-REx-293 cells, tetracycline-induced, co-expressing the Gi-CASE biosensor
T4 sequence (P21554 whole entry): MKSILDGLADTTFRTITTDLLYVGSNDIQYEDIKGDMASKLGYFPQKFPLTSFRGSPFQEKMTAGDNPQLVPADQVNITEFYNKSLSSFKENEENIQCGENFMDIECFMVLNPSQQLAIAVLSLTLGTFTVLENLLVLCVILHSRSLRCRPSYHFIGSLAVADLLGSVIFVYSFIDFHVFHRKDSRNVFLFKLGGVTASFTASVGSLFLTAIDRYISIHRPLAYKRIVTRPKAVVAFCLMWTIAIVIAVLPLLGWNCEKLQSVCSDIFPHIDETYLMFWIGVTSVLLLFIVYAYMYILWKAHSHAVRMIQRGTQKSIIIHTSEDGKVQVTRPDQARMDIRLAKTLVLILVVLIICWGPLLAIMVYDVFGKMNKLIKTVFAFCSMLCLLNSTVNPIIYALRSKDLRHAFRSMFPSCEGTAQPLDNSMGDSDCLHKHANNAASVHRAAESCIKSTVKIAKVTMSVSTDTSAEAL

[4] = molecular target: T2, human CB1R (SNAP-CB1R91–472); assay: biochemical; type: binding; remark: listed apart in the source
human CB2R (SNAP-CB2) [5] = molecular target: T1, human CB2R (SNAP-CB2); assay: Fluorescent ligand kinetic association binding, TR-FRET; settings: 25°C; for time required for equilibrium: 15 min data collection period
Description: (§1) Experiments were performed using T-REx™-293 cell membranes expressing SNAP-tagged human CB1R or CB2R (SNAP-CB1R91–472 and SNAP-CB2). All the assays were conducted at either 25°C or 37°C in white 384-well OptiPlate plates (PerkinElmer) using the PHERAstar FSX microplate reader (BMG Labtech). The TRF 337/620/520 optic module was used for all assays, except for tracer MKA-136, where the TRF 337/570/490 module was utilized. Each well was excited with four laser flashes, and signal detection was performed with a 100-μs delay, integrating the signal over 700 μs.
(§2) Assay buffer comprised HBSS (Hanks’ Balanced Salt Solution) containing 5 mM HEPES, 0.5% BSA, and 0.02% Pluronic F-127 at pH 7.4. BSA (0.5%) and 0.02% Pluronic F-127 were used to minimize the non-specific binding of hydrophobic compounds to plasticware. Membranes were preincubated with 100 μM of GppNHp at 25 or 37°C for 15 min prior to addition to the plate using automatic injectors to ensure early time points could be measured with accuracy. GppNHp is a non-hydrolyzable GTP analog that will bind to G proteins and promote the dissociation of G proteins from the receptor. This way, we promote a single population of receptors (uncoupled from G proteins) avoiding a mixed population (i.e., uncoupled receptors (R) and receptors coupled to GDP bound G proteins, or G proteins alone (RG)). Adding GTP analogs is a common strategy used in GPCR binding studies to ensure a homogeneous single-state receptor population and simplify the analysis.
(§3) To control for potential plate position effects, plate layouts were varied between independent experiments. […] D77 stock was prepared at 100x the final concentration, and 0.4 μL was added to the wells. DMSO was held constant at 2% for all assay points, including the saturation and competition binding experiments, as reflected in the text.
(§4) Fluorescent ligand binding to CB1R and CB2R was assessed via HTRF detection, allowing the construction of association binding curves. For fluorescent ligand characterization, six increasing concentrations of fluorescent ligands were prepared, and cell membranes containing human CB1R or CB2R (1 μg/well) were added (at t = 0) in a total volume of 40 μL containing 2% DMSO at 25 or 37°C, with gentle agitation. […] As the wells are read sequentially, we restricted the readout of kinetic data of two ligands per experimental run to reduce the minimum reading cycle time.
(§5) D77 association data were fitted to a global fitting model using GraphPad Prism 9.2 to simultaneously calculate k on and k off using the following equation, where k obs equals the observed rate of association and L is the concentration of D77: kobs=L⋅kon+koff (3)

[6] = molecular target: T2, human CB1R (SNAP-CB1R91–472); assay: as above; settings: 25°C; for time required for equilibrium: 15 min data collection period
Description: as §1, §2, §3, §4, §5

CB2R = settings: 25°C, radioligand kinetic binding assay, ref Martella et al., 2017; cited from earlier work

T1 sequence (P34972 whole entry, the tested form may be a part): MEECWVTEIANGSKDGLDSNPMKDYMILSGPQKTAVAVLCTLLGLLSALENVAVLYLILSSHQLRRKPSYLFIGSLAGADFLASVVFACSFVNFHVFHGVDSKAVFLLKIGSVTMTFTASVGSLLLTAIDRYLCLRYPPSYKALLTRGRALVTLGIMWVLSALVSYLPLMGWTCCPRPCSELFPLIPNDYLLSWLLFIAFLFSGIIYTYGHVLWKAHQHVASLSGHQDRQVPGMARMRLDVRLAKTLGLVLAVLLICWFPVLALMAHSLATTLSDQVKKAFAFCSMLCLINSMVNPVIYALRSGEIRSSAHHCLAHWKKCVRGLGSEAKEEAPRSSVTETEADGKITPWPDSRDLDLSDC

CCCCC/C=C\C/C=C\C/C=C\C/C=C\CCCC(=O)OC(CO)CO [2-AG]
pKd (kinetic) (human CB2R (SNAP-CB2) [1]; 25°C): 6.36 ± 0.06 | pK d (kinetic) (human CB2R (SNAP-CB2) [1]; 37°C): 5.92 ± 0.04 | pK i (human CB2R (SNAP-CB2) [2]): 5.81 ± 0.03

CCCCCCC(C)(C)c1cc(O)c2c(c1)OC(C)(C)[C@@H]1CC=C(CO)C[C@@H]21 [HU-210]
pK d (kinetic) [3]: 8.65 ± 0.01 | pKd (kinetic) [3]: 8.64 ± 0.02 | Emax (%) (truncated CB1R91-472): 104.1 ± 4.7% | pEC50 (truncated CB1R91-472): 9.15 ± 0.09 | Emax (%) (full length CB1R WT): 98.2 ± 6.8% | pEC50 (full length CB1R WT): 8.97 ± 0.08 | pK i [4]: 7.99 ± 0.01

CCCCCCC(C)(C)c1cc(OC)c([C@@H]2C=C(CO)[C@@H]3C[C@H]2C3(C)C)c(OC)c1 [HU-308]
Kd ([3]; pK d (kinetic)): 4.47 µM | Kd ([3]; pKd (kinetic)): 4.27 µM | Ki [4]: 3.89 µM

CCCCCCC(C)(C)c1cc(OC)c(C2C=C(CNC(=O)CCCCCCNc3ccc([N+](=O)[O-])c4nonc34)C3CC2C3(C)C)c(OC)c1 (stereo not shown) [MKA-115]
time required for equilibrium (human CB2R (SNAP-CB2) [5]): > 15 min | time required for equilibrium [6]: > 15 min

CCCCCc1cc(O)c2c(c1)OC(C)(C)[C@@H]1CC=C(CNC(=O)CCCCCCNc3ccc([N+](=O)[O-])c4nonc34)C[C@@H]21 [MKA-136]
koff of fluorescent tracer (human CB2R (SNAP-CB2) [5]): 0.0035 ± 0.0012 s⁻¹ | pKd of fluorescent tracer (human CB2R (SNAP-CB2) [5]): 6.71 ± 0.41 | time required for equilibrium (human CB2R (SNAP-CB2) [5]): > 15 min | time required for equilibrium [6]: > 15 min

CCCCCc1cc(O)c2c(c1)OC(C)(C)[C@@H]1CC=C(CNC(=O)CCCCC[n+]3cc(S(=O)(=O)[O-])ccc3/C=C/c3cc4ccc(N(CC)CC)cc4oc3=O)C[C@@H]21 [MKA-138]
koff of fluorescent tracer (human CB2R (SNAP-CB2) [5]): 0.0153 ± 0.0015 s⁻¹ | pKd of fluorescent tracer (human CB2R (SNAP-CB2) [5]): 6.97 ± 0.08 | koff of fluorescent tracer [6]: 0.15 ± 0.03 s⁻¹ | pKd of fluorescent tracer [6]: 6.31 ± 0.05

CCOC(=O)C(CC)(CCCSCCOCCNc1ccc([N+](=O)[O-])c2nonc12)NC(=O)c1ccc(C2CC2)c(Cc2ccc(F)cc2)n1 (stereo not shown) [NBD-690]
koff of fluorescent tracer (human CB2R (SNAP-CB2) [5]): 0.0162 ± 0.00083 s⁻¹ | pKd of fluorescent tracer (human CB2R (SNAP-CB2) [5]): 7.15 ± 0.02 | koff of fluorescent tracer [6]: 0.128 ± 0.00733 s⁻¹ | pKd of fluorescent tracer [6]: 6.13 ± 0.09

CCOC(=O)C(CC)(CCCSCCOCCOCCNc1ccc([N+](=O)[O-])c2nonc12)NC(=O)c1ccc(C2CC2)c(Cc2ccc(F)cc2)n1 (stereo not shown) [NBD-691]
koff of fluorescent tracer (human CB2R (SNAP-CB2) [5]): 0.0208 ± 0.001 s⁻¹ | pKd of fluorescent tracer (human CB2R (SNAP-CB2) [5]): 7.20 ± 0.01 | pKd of fluorescent tracer [6]: 6.04 ± 0.01

CCOC(=O)C(CC)(CCCSCCOCCOCCOCCNc1ccc([N+](=O)[O-])c2nonc12)NC(=O)c1ccc(C2CC2)c(Cc2ccc(F)cc2)n1 (stereo not shown) [NBD-694]
koff of fluorescent tracer (human CB2R (SNAP-CB2) [5]): 0.039 ± 0.00367 s⁻¹ | pKd of fluorescent tracer (human CB2R (SNAP-CB2) [5]): 6.97 ± 0.01 | pKd of fluorescent tracer [6]: 6.02 ± 0.01

CCOC(=O)C(CC)(CCCSCCOCCOCCOCCOCCNc1ccc([N+](=O)[O-])c2nonc12)NC(=O)c1ccc(C2CC2)c(Cc2ccc(F)cc2)n1 (stereo not shown) [NBD-698]
koff of fluorescent tracer (human CB2R (SNAP-CB2) [5]): 0.0475 ± 0.00667 s⁻¹ | pKd of fluorescent tracer (human CB2R (SNAP-CB2) [5]): 6.93 ± 0.05 | koff of fluorescent tracer [6]: 0.166 ± 0.004 s⁻¹ | pKd of fluorescent tracer [6]: 6.22 ± 0.01

SR 144528
k off [3]: 0.0832 ± 0.0122 s⁻¹ | koff [3]: 0.0387 ± 0.00333 s⁻¹ | Residence time (Rt) (s) (human CB2R (SNAP-CB2) [1]; 25°C): 379 ± 27 s | koff (human CB2R (SNAP-CB2) [1]; 25°C): 0.00267 ± 0.00017 s⁻¹ | Residence time (Rt) (min) (human CB2R (SNAP-CB2) [1]; 25°C, listed as SR 144,528): 6.3 min | Residence time (Rt) (min) (human CB2R (SNAP-CB2) [1]; 25°C, listed as SR-144528): 6.32 ± 0.45 min | k off (human CB2R (SNAP-CB2) [1]; 37°C): 0.0115 ± 0.0005 s⁻¹ | k on (human CB2R (SNAP-CB2) [1]; 37°C): (2.47 ± 0.16) × 10^8 M^−1 min^−1 | k on (text, shared exponent) (human CB2R (SNAP-CB2) [1]; 37°C): 4.17e+06 M⁻¹ s⁻¹ | Residence time (Rt) (min) (human CB2R (SNAP-CB2) [1]; 37°C, Rt = 1/k off): 1.46 ± 0.07 min | Residence time (Rt) (s) (human CB2R (SNAP-CB2) [1]; 37°C, Rt = 1/k off): 87 ± 4 s | residence time (CB2R): 8.7 min
